Data reported in patent publication US12594278B2, “Method for treatment of muscular dystrophy” (CHILDREN'S NATIONAL MEDICAL CENTER, priority 2019, dated 2026).

Columns and labels:
FAP = details: stated without data; cited from earlier work
A2-B6A/J mice = assay: Notexin injury of A2-B6A/J TA muscle with or without recombinant AnxA2; type: in vivo, mouse; details: 10 μg AnxA2 at injury site, 28 d after injury, vs notexin alone
Experimental: To test if this was also true in vivo, the AnxA2-naïve A2-B6A/J mice were used for receiving notexin to injure their muscle with or without the addition of 10 μg purified AnxA2 at the site of injury. […] This provides direct evidence supporting that extracellular AnxA2 is not only necessary, but also sufficient for driving FAP-mediated in vivo adipogenic conversion of the regenerating dysferlinopathic muscles.
Microscopy and Image Analysis. Microscopy was performed using an Olympus BX61 VS120-S5 Virtual Slide Scanning System with UPlanSApo 40×/0.95 objective, Olympus XM10 monochrome camera or Allied vision Pike F-505C color camera, and Olympus VS-ASW FL 2.7 imaging software. […] Perilipin-1 quantification was performed by thresholding the image to exclude non-specific staining and then calculating the area of each lipid deposit encircled by perlipin-1 (excluding those in the epi- or perimysium) using MetaMorph software (Molecular Devices). The total area encircled by perilipin-1 was calculated for all lipid deposits across the muscle and expressed relative to the total cross-sectional area. PDGFRα and AnxA2 positive area was calculated using CellSens software (Olympus) by thresholding to remove non-specific staining and calculating the total positive area (again, excluding any epi- or perimysial staining) relative to the entire muscle cross-section. […]

B6A/J FAPs = assay: Spontaneous adipogenesis of purified B6A/J FAPs treated with recombinant AnxA2 (Oil Red O); type: cell-based, mouse; details: 100 nM AnxA2 from day 3; 24Mo B6A/J FAPs; vs AnxA2 untreated FAPs
From the text: The contribution of AnxA2 to the adipogenic fate of the FAPs was next examined in dysferlin-deficient muscle. For this FAPs were isolated from 12Mo WT, B6A/J and A2-B6A/J muscle and their spontaneous adipogenesis in vitro was quantified. […] The spontaneous adipogenesis of B6A/J FAPs indicates these cells are committed to adipogenesis prior to extraction, which can be caused by the pro-adipogenic niche in dysferlinopathic muscle. The lack of spontaneous adipogenesis in A2-B6A/J FAPs can be caused by the lack of a pro-adipogenic niche or restricted adipogenic potential of the FAPs in the absence of AnxA2 (FIG. 8). As adipogenic replacement of muscle is enhanced with age, the niche (PDGFRα^−) and FAP (PDGFRα^+) cells from 24Mo B6A/J and A2-B6A/J muscles were isolated to allow for the niche cells to reach their maximal potential. These FAP and niche cells were then mixed in a 1:1 ratio (20,000 cells total; 10,000 FAPs) from the same or different genetic background and their spontaneous adipogenesis was quantified as the extent of oil red staining/20,000 FAPs. […] To directly test if it is the AnxA2 or another factor secreted by the niche cells that influences FAP adipogenesis, a purified population of B6A/J FAPs ([…]) were treated with 100 nM AnxA2 and their spontaneous adipogenesis was quantified as the extent of oil red staining/20,000 FAPs. […]

Compound	FAP adipogenesis (FAP)	accumulation of PDGFRα FAPs in TA after notexin injury (A2-B6A/J mice)	perilipin-1 labeled adipogenic deposits in TA after notexin injury (A2-B6A/J mice)	increase in spontaneous adipogenic differentiation of dysferlinopathic FAPs (oil red staining/20,000 FAPs) (B6A/J FAPs) [fold]
CC(CN1c2ccccc2Sc2ccccc21)N(C)C (stereo not shown) [promethazine]	inhibits FAP adipogenesis			
AnxA2: recombinant AnxA2 (RayBiotech, #230-30023), membrane repair protein Annexin A2		increased accumulation	increased accumulation	> 2
